Measurements published in ChEMBL document CHEMBL2146384 (J Med Chem, 2012).
pIC50: −log10 of the molar value.

Experiments:
[1] = molecular target: T1, Deoxyuridine 5'-triphosphate nucleotidohydrolase, mitochondrial (Homo sapiens, UniProt P33316); experiment: Inhibition of human dUTPase-mediated formation of [5-3H]dUMP expressed in Escherichia coli BL21 (DE3) after 15 mins by HPLC analysis
T1 sequence (P33316 whole entry): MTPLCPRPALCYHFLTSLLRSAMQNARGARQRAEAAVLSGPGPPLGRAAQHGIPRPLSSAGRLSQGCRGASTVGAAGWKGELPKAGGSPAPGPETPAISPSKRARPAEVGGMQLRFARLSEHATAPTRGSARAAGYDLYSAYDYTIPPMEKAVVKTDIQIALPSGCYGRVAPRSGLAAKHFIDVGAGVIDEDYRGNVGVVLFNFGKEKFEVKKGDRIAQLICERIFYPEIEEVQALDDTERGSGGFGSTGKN

[2] = tested on: Mus musculus; experiment: Toxicity in Balb/cA JcL mouse xenografted with human MX1 cells assessed as mortality at 300 mg/kg/day, po co-administered with 5-FU at 15 mg/kg/day as continuous infusion measured on day 15; assay type: organism-based; settings: in vivo
[3] = AUC (0 to t) in Balb/cA mouse at 50 mg/kg, po; assay type: ADME, organism-based; design: dose 50 mg/kg, route oral; settings: plasma
[4] = Cmax in Balb/cA mouse at 50 mg/kg, po; assay type: ADME, organism-based; design: dose 50 mg/kg, route oral; settings: in vivo
[5] = Half life in Balb/cA mouse at 50 mg/kg, po; assay type: ADME, organism-based; design: dose 50 mg/kg, route oral; settings: in vivo
[6] = Tmax in Balb/cA mouse at 50 mg/kg, po; assay type: ADME, organism-based; design: dose 50 mg/kg, route oral; settings: in vivo
[7] = tested on: MX1; experiment: Potentiation of 5-FU induced antitumor activity in human MX1 cells xenografted in Balb/cA JcL mouse at 300 mg/kg/day, po measured on day 15; assay type: functional; settings: MX1, 360 h
[8] = tested on: MX1; experiment: Antitumor activity against human MX1 cells xenografted in Balb/cA JcL mouse at 300 mg/kg/day, po measured on day 15; assay type: functional; settings: MX1, 360 h
[9] = tested on: Mus musculus; experiment: Toxicity in Balb/cA JcL mouse xenografted with human MX1 cells assessed as reduction of body weight at 300 mg/kg/day, po co-administered with 5-FU at 15 mg/kg/day as continuous infusion measured on day 15; assay type: organism-based; settings: in vivo
[10] = tested on: MX1; experiment: Antitumor activity against human MX1 cells xenografted in Balb/cA JcL mouse at 15 mg/kg/day dosed as as continuous infusion measured on day 15; assay type: functional; settings: MX1, 360 h

| Structure (SMILES) | pIC50 [1] | further results |
| --- | --- | --- |
| CC(C)(NS(=O)(=O)c1ccccc1)c1ccc(Cn2ccc(=O)[nH]c2=O)cc1 | 5.74 | – |
| CC(C)(CC/C=C/Cn1ccc(=O)[nH]c1=O)NS(=O)(=O)c1ccccc1 | 5.80 | – |
| COc1cccc(S(=O)(=O)NC(C)(C)c2ccc(Cn3ccc(=O)[nH]c3=O)cc2)c1 | 5.90 | – |
| CC(C)(NS(=O)(=O)c1cccc(OCC2CC2)c1)c1ccc(Cn2ccc(=O)[nH]c2=O)cc1 | 7.14 | – |
| CC(C)(NS(=O)(=O)c1cccc(OC2CCCC2)c1)c1ccc(Cn2ccc(=O)[nH]c2=O)cc1 | 7.51 | – |
| CC(C)(NS(=O)(=O)c1cccc(OCC(F)F)c1)c1ccc(Cn2ccc(=O)[nH]c2=O)cc1 | 7.14 | – |
| COc1cccc(S(=O)(=O)NC(C)(C)CC/C=C/Cn2ccc(=O)[nH]c2=O)c1 | 6.47 | – |
| CC(C)(CC/C=C/Cn1ccc(=O)[nH]c1=O)NS(=O)(=O)c1cccc(OC2CCCC2)c1 | 7.48 | – |
| CC(C)(CC/C=C/Cn1ccc(=O)[nH]c1=O)NS(=O)(=O)c1cccc(OCC(F)F)c1 | 7.59 | – |
| C[C@@H](NS(=O)(=O)c1ccc(Cn2ccc(=O)[nH]c2=O)cc1)c1cccc(OCC2CC2)c1 | 6.09 | – |
| C[C@@H](NS(=O)(=O)c1ccc(Cn2ccc(=O)[nH]c2=O)cc1)c1cccc(OC2CCCC2)c1 | 6.37 | – |
| C[C@@H](NS(=O)(=O)c1ccc(Cn2ccc(=O)[nH]c2=O)cc1)c1cccc(OCC(F)F)c1 | 6.39 | – |
| C[C@@H](NS(=O)(=O)CC/C=C/Cn1ccc(=O)[nH]c1=O)c1cccc(OCC2CC2)c1 | 7.41 | Activity [2]: Non-toxic; AUC(0-t) [3]: 19.5 µM·h; Cmax [4]: 19.5 µM; half-life [5]: 53.4 min; Tmax [6]: 30 min; inhibition in vivo at 300 mg/kg/day [7]: 68%; inhibition in vivo at 300 mg/kg/day [8]: -29%; Activity [9]: Non-toxic |
| C[C@@H](NS(=O)(=O)CC/C=C/Cn1ccc(=O)[nH]c1=O)c1cccc(OC2CCCC2)c1 | 7.39 | – |
| C[C@@H](NS(=O)(=O)CC/C=C/Cn1ccc(=O)[nH]c1=O)c1cccc(OCC(F)F)c1 | 7.09 | – |
| O=c1[nH]cc(F)c(=O)[nH]1 [FLUOROURACIL] | – | inhibition in vivo at 15 mg/kg/day [10]: 20% |
